Among the data in patent US10239843B2 (CANCER RESEARCH TECHNOLOGY LIMITED, priority 2014, dated 2019) are IC50 values, retold here.

Like-named read-outs stand apart in the source and are kept apart here.

One assay addresses Human Full Length ARH3 (Homo sapiens (Human), UniProt Q9NX46). Put plainly: ARH3 in vitro selectivity assay (TR-FRET). It counts as biochemical. As to conditions: read-out: ARH3 Biochem IC50. For orientation: TR-FRET usually uses a lanthanide donor and a delayed reading to cut background.
A further assay addresses Human Full Length PARG (Homo sapiens (Human), UniProt Q86W56). Put plainly: PARG enzyme assay (TR-FRET). The following applies: read-out: PARG Biochem IC50. Type of assay: biochemical.
The test system of the next assay is PARG in HeLa cell line. Description: PARG cell assay (PAR chain immunofluorescence after MMS). It counts as cell-based. As to conditions: HeLa cells, MMS treatment, read-out: PARG Cell IC50. A digest of the protocol: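 HeLa cells were dosed with compound for 1 h, then given MMS at 50 μg/mL final for a further hour. Cells were methanol-fixed, permeabilised and stained overnight at 4° C with anti-PAR monoclonal antibody. Retained nuclear PAR chains, detected by indirect immunofluorescence, indicate PARG inhibition.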

Sequence of Human Full Length PARG (Q86W56 whole entry): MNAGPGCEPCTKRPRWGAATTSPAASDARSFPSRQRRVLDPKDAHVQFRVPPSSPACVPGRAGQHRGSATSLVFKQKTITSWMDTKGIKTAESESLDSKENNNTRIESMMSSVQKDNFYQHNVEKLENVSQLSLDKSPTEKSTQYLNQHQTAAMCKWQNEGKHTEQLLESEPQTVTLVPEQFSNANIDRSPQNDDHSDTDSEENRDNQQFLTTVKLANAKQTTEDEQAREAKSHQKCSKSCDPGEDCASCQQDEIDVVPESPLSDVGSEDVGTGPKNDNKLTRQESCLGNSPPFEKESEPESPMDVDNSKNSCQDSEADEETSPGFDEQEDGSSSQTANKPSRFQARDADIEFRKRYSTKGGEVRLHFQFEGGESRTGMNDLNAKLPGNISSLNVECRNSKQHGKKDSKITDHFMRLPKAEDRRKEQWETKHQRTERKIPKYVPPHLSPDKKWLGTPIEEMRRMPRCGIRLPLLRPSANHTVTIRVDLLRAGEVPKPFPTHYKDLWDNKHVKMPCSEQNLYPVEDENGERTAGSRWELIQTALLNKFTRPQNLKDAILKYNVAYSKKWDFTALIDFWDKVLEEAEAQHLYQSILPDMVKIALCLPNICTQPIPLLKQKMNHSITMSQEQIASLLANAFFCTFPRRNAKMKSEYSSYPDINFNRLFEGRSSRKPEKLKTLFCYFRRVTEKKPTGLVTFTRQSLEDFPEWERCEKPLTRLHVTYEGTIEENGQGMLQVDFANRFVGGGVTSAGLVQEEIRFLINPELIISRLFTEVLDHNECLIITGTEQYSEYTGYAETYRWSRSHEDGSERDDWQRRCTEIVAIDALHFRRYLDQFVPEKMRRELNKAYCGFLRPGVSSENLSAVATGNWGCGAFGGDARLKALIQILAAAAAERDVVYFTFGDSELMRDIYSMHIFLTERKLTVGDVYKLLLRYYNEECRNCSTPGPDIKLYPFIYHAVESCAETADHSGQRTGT
Sequence of Human Full Length ARH3 (Q9NX46 whole entry): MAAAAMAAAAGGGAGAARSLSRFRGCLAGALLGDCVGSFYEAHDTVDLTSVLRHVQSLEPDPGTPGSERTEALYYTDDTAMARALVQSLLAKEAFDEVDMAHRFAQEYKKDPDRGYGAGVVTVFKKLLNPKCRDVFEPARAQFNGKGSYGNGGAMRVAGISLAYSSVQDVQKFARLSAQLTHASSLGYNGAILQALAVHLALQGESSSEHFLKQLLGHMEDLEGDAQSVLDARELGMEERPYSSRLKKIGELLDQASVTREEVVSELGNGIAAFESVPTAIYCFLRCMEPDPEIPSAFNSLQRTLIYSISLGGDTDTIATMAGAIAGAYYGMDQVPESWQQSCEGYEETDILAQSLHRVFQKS
Protocol for Human Full Length ARH3: ARH3 In vitro selectivity assays were conducted in a total volume of 15 ul in a standard 384 well format.

For orientation: IC50 means the concentration that inhibits the measured activity by half. In the case of `Cc1ncsc1Cn1c(=O)n(Cc2cnn(C)c2)c(=O)c2cc(S(=O)(=O)NC3(CF)CC3)ccc21` [Example 572, N-[1-(Fluoromethyl)cyclopropyl]-3-[(1-methylpyrazol-4-yl)methyl]-1-[(4-methylthiazol-5-yl)methyl]-2,4-dioxo-quinazoline-6-sulfonamide], the IC50 at Human Full Length ARH3 is greater than 150000 nM; at Human Full Length PARG, 7 nM.

Regarding `Cn1cc(Cn2c(=O)c3cc(S(=O)(=O)NC4(CF)CC4)ccc3n(CC3CCOC3)c2=O)cn1` (stereo not shown) [Example 598, N-[1-(Fluoromethyl)cyclopropyl]-3-[(1-methylpyrazol-4-yl)methyl]-2,4-dioxo-1-(tetrahydrofuran-3-ylmethyl)quinazoline-6-sulfonamide], the IC50 at Human Full Length PARG came to 82 nM; with PARG in HeLa cell line (Homo sapiens), 240 nM.

For the compound `Cn1cc(Cn2c(=O)c3cc(S(=O)(=O)NC4(C)CC4)ccc3n(CC(F)F)c2=O)cn1` [Example 599, 1-(2,2-Difluoroethyl)-N-(1-methylcyclopropyl)-3-[(1-methylpyrazol-4-yl)methyl]-2,4-dioxo-quinazoline-6-sulfonamide], the IC50 was 263 nM on Human Full Length PARG and 93 nM in the assay with PARG in HeLa cell line (Homo sapiens).

Consider `Cn1cc(Cn2c(=O)c3cc(S(=O)(=O)NC4(CF)CC4)ccc3n(CC(F)F)c2=O)cn1` [Example 600, 1-(2,2-Difluoroethyl)-N-[1-(fluoromethyl)cyclopropyl]-3-[(1-methylpyrazol-4-yl)methyl]-2,4-dioxo-quinazoline-6-sulfonamide], for which the IC50 on Human Full Length PARG is 127 nM; in the assay on PARG in HeLa cell line (Homo sapiens), 109 nM.

Take `Cc1nnc(Cn2c(=O)[nH]c3ccc(S(=O)(=O)NC4(CF)CC4)cc3c2=O)s1` [Example 601, N-[1-(Fluoromethyl)cyclopropyl]-3-[(5-methyl-1,3,4-thiadiazol-2-yl)methyl]-2,4-dioxo-1H-quinazoline-6-sulfonamide]: the figures for the IC50 on Human Full Length PARG and with PARG in HeLa cell line (Homo sapiens) were 710 nM and 13500 nM, respectively.

With `Cc1cc(Cn2c(=O)c3cc(S(=O)(=O)NC4(CF)CC4)ccc3n(C(F)F)c2=O)on1` [Example 604, 1-(Difluoromethyl)-N-[1-(fluoromethyl)cyclopropyl]-3-[(3-methylisoxazol-5-yl)methyl]-2,4-dioxo-quinazoline-6-sulfonamide], the results for the IC50 on Human Full Length PARG and in the assay on PARG in HeLa cell line (Homo sapiens) were 788 nM and 295 nM, respectively.

As for `Cc1cc(Cn2c(=O)c3cc(S(=O)(=O)NC4(C)CC4)ccc3n(C(F)F)c2=O)on1` [Example 605, 1-(Difluoromethyl)-N-(1-methylcyclopropyl)-3-[(3-methylisoxazol-5-yl)methyl]-2,4-dioxo-quinazoline-6-sulfonamide], the concentration for half-maximal inhibition (IC50) was found to be 1370 nM on Human Full Length PARG and 588 nM in the assay on PARG in HeLa cell line (Homo sapiens).

Consider `Cn1cc(Cn2c(=O)c3cc(S(=O)(=O)NC4(C)CC4)ccc3n(C(F)F)c2=O)cn1` [Example 606, 1-(Difluoromethyl)-N-(1-methylcyclopropyl)-3-[(1-methylpyrazol-4-yl)methyl]-2,4-dioxo-quinazoline-6-sulfonamide], for which the IC50 came out at 1470 nM on Human Full Length PARG and 248 nM in the assay with PARG in HeLa cell line (Homo sapiens).

With `Cn1cc(Cn2c(=O)c3cc(S(=O)(=O)NC4(CF)CC4)ccc3n(Cc3cocn3)c2=O)cn1` [Example 607, N-[1-(Fluoromethyl)cyclopropyl]-3-[(1-methylpyrazol-4-yl)methyl]-1-(oxazol-4-ylmethyl)-2,4-dioxo-quinazoline-6-sulfonamide], the IC50 at Human Full Length PARG amounted to 63 nM; in the assay with PARG in HeLa cell line (Homo sapiens) it was 76 nM.

`Cn1cc(Cn2c(=O)c3cc(S(=O)(=O)NC4(CF)CC4)ccc3n(CC3CCCC3)c2=O)cn1` [Example 608, 1-(Cyclopentylmethyl)-N-[1-(fluoromethyl)cyclopropyl]-3-[(1-methylpyrazol-4-yl)methyl]-2,4-dioxo-quinazoline-6-sulfonamide]: the IC50 was found to be 64 nM on Human Full Length PARG and 50 nM in the assay with PARG in HeLa cell line (Homo sapiens).

With `CC(C)=CCn1c(=O)n(Cc2cnn(C)c2)c(=O)c2cc(S(=O)(=O)NC3(CF)CC3)ccc21` [Example 609, N-[1-(Fluoromethyl)cyclopropyl]-1-(3-methylbut-2-enyl)-3-[(1-methylpyrazol-4-yl)methyl]-2,4-dioxo-quinazoline-6-sulfonamide], the IC50 at Human Full Length PARG stood at 51 nM; in the assay on PARG in HeLa cell line (Homo sapiens), 56 nM.

Regarding `Cn1cc(Cn2c(=O)c3cc(S(=O)(=O)NC4(CF)CC4)ccc3n(Cc3ccncc3)c2=O)cn1` [Example 610, N-[1-(Fluoromethyl)cyclopropyl]-3-[(1-methylpyrazol-4-yl)methyl]-2,4-dioxo-1-(4-pyridylmethyl)quinazoline-6-sulfonamide], the IC50 at Human Full Length PARG was 111 nM; with PARG in HeLa cell line (Homo sapiens), 669 nM.

Regarding `CCN(CC)CCn1c(=O)n(Cc2cnn(C)c2)c(=O)c2cc(S(=O)(=O)NC3(CF)CC3)ccc21` [Example 611, 1-[2-(Diethylamino)ethyl]-N-[1-(fluoromethyl)cyclopropyl]-3-[(1-methylpyrazol-4-yl)methyl]-2,4-dioxo-quinazoline-6-sulfonamide], the IC50 at Human Full Length PARG turned out to be 113 nM; in the assay on PARG in HeLa cell line (Homo sapiens), 249 nM.

On to `CCOCCn1c(=O)n(Cc2cnn(C)c2)c(=O)c2cc(S(=O)(=O)NC3(CF)CC3)ccc21` [Example 612], for which the values for the IC50 at Human Full Length PARG and in the assay on PARG in HeLa cell line (Homo sapiens) were 194 nM and 178 nM, respectively.

With `CC(C)CCn1c(=O)n(Cc2cnn(C)c2)c(=O)c2cc(S(=O)(=O)NC3(CF)CC3)ccc21` [Example 613, N-[1-(Fluoromethyl)cyclopropyl]-1-isopentyl-3-[(1-methylpyrazol-4-yl)methyl]-2,4-dioxo-quinazoline-6-sulfonamide], the IC50 at Human Full Length PARG stood at 42 nM; in the assay on PARG in HeLa cell line (Homo sapiens), 56 nM.

Take `Cc1cc(Cn2c(=O)n(Cc3nnc(C)s3)c(=O)c3cc(S(=O)(=O)NC4(C)CC4)ccc32)n(C)n1` [Example 615, 1-[(2,5-Dimethylpyrazol-3-yl)methyl]-N-(1-methylcyclopropyl)-3-[(5-methyl-1,3,4-thiadiazol-2-yl)methyl]-2,4-dioxo-quinazoline-6-sulfonamide]: the IC50 is 64 nM on Human Full Length PARG and 274 nM in the assay on PARG in HeLa cell line (Homo sapiens).

As to `COCCOCCn1c(=O)n(Cc2cnn(C)c2)c(=O)c2cc(S(=O)(=O)NC3(CF)CC3)ccc21` [Example 618, N-[1-(Fluoromethyl)cyclopropyl]-1-[2-(2-methoxyethoxy)ethyl]-3-[(1-methylpyrazol-4-yl)methyl]-2,4-dioxo-quinazoline-6-sulfonamide], the IC50 on Human Full Length PARG was found to be 247 nM; in the assay on PARG in HeLa cell line it was 325 nM.

On to `Cn1cc(Cn2c(=O)c3cc(S(=O)(=O)NC4(CF)CC4)ccc3n(CC3CCCO3)c2=O)cn1` (stereo not shown) [Example 619, N-[1-(Fluoromethyl)cyclopropyl]-3-[(1-methylpyrazol-4-yl)methyl]-2,4-dioxo-1-(tetrahydrofuran-2-ylmethyl)quinazoline-6-sulfonamide], for which the IC50 on Human Full Length PARG was found to be 190 nM; in the assay with PARG in HeLa cell line (Homo sapiens), 233 nM.

As for `CCC(=O)Cn1c(=O)n(Cc2cnn(C)c2)c(=O)c2cc(S(=O)(=O)NC3(CF)CC3)ccc21` [Example 620, N-[1-(Fluoromethyl)cyclopropyl]-3-[(1-methylpyrazol-4-yl)methyl]-2,4-dioxo-1-(2-oxobutyl)quinazoline-6-sulfonamide], the IC50 at Human Full Length PARG amounted to 144 nM; with PARG in HeLa cell line (Homo sapiens) it was 238 nM.

For `Cn1cc(Cn2c(=O)c3cc(S(=O)(=O)NC4(C)CC4)ccc3n(CC(F)(F)F)c2=O)cn1` [Example 621, N-(1-Methylcyclopropyl)-3-[(1-methylpyrazol-4-yl)methyl]-2,4-dioxo-1-(2,2,2-trifluoroethyl)quinazoline-6-sulfonamide], the values for the IC50 on Human Full Length PARG and with PARG in HeLa cell line (Homo sapiens) were 257 nM and 135 nM, respectively.

`Cc1cc(Cn2c(=O)c3cc(S(=O)(=O)NC4(CF)CC4)ccc3n(CC(F)(F)F)c2=O)on1` [Example 622, N-[1-(Fluoromethyl)cyclopropyl]-3-[(3-methylisoxazol-5-yl)methyl]-2,4-dioxo-1-(2,2,2-trifluoroethyl)quinazoline-6-sulfonamide]: the IC50 is 355 nM at Human Full Length PARG and 228 nM with PARG in HeLa cell line (Homo sapiens).

Consider `Cn1cc(Cn2c(=O)c3cc(S(=O)(=O)NC4(CF)CC4)ccc3n(CC(F)(F)F)c2=O)cn1` [Example 623, N-[1-(Fluoromethyl)cyclopropyl]-3-[(1-methylpyrazol-4-yl)methyl]-2,4-dioxo-1-(2,2,2-trifluoroethyl)quinazoline-6-sulfonamide], for which the IC50 on Human Full Length PARG worked out at 2670 nM; in the assay with PARG in HeLa cell line (Homo sapiens) it was 10000 nM.

For `Cn1c(=O)n(Cc2nncs2)c(=O)c2cc(S(=O)(=O)NC3(CF)CC3)ccc21` [Example 624, N-[1-(Fluoromethyl)cyclopropyl]-1-methyl-2,4-dioxo-3-(1,3,4-thiadiazol-2-ylmethyl)quinazoline-6-sulfonamide], the IC50 at Human Full Length PARG amounted to 1040 nM; in the assay with PARG in HeLa cell line (Homo sapiens), 4350 nM.

Consider `Cn1ncc(Cn2c(=O)c3cc(S(=O)(=O)NC4(CF)CC4)ccc3n(C)c2=O)n1` [Example 626, N-[1-(Fluoromethyl)cyclopropyl]-1-methyl-3-[(2-methyltriazol-4-yl)methyl]-2,4-dioxo-quinazoline-6-sulfonamide], for which the IC50 at Human Full Length PARG came to 3160 nM; in the assay on PARG in HeLa cell line, 1810 nM.

`Cc1cc(Cn2c(=O)c3cc(S(=O)(=O)NC4(CF)CC4)ccc3n(Cc3nncs3)c2=O)on1` [Example 627, N-[1-(Fluoromethyl)cyclopropyl]-3-[(3-methylisoxazol-5-yl)methyl]-2,4-dioxo-1-(1,3,4-thiadiazol-2-ylmethyl)quinazoline-6-sulfonamide]: the results for the IC50 at Human Full Length PARG and in the assay with PARG in HeLa cell line (Homo sapiens) were 159 nM and 351 nM, respectively.

As to `CCc1nnc(Cn2c(=O)c3cc(S(=O)(=O)NC4(CF)CC4)ccc3n(C)c2=O)s1` [Example 628, 3-[(5-Ethyl-1,3,4-thiadiazol-2-yl)methyl]-N-[1-(fluoromethyl)cyclopropyl]-1-methyl-2,4-dioxo-quinazoline-6-sulfonamide], the IC50 amounted to 2690 nM at Human Full Length PARG and 736 nM with PARG in HeLa cell line (Homo sapiens).
